Two compounds from patent US7256205B2, “Nitrosated and nitrosylated H2 receptor antagonist compounds, compositions and methods of use” (NitroMed, Inc., priority 1998, dated 2007) can be followed below.

“Also recorded” adds a separate entry of the source.

For this assay, the system named is gastric lesions produced by the ethanol/HCl mixture. The experiment in a line: ethanol/HCl mixture-induced gastric lesion test in rats. The note with it: oral gavage 30 min before 60% ethanol in 150 mM HCl, lesions scored 60 min after. It is filed as in vivo, Male Sprague Dawley rats. The procedure: The ethanol/HCl mixture-induced gastric lesion test in rats described by Takeuchi et al, J. Pharmacol. Exp. Ther., 286: 115-121 (1998), was used to evaluate the gastric lesion activity. Male Sprague Dawley rats (Charles River Laboratories, Wilmington, Mass.) weighing 230-250 g were used for the experiments. The rats were housed with laboratory chow and water ad libitum prior to the study. The rats were fasted for 24 hours with free access to water and then dosed by oral gavage with vehicle or with the test compounds given at a volume of 0.5 ml/100 g body weight. Thirty minutes after oral dosing all the rats received 1 ml of a solution of 60% ethanol in 150 mM HCl intragastrically. Food was withheld after dosing. Sixty minutes after ethanol/HCl, rats were euthanized by pre-charged CO2. The stomachs were dissected along the greater curvature, washed with a directed stream of 0.9% saline and pinned open on a sylgard based petri dish for examination of the hemorrhagic lesions. Gastric lesion score was expressed in mm and calculated by summing the length of each lesion as described by Al-Ghamdi et al, J. Int. Med. Res., 19: 2242 (1991). Results are expressed as the mean±standard error of the mean. Statistical analysis were conducted using ANOVA test followed by a Student-Newman-Keuls post-hoc test using the Abacus Concepts, Super Anova computer program (Abacus Concepts, Inc., Berkeley, Calif.).

As to `CN/C(=N/CCSCc1nc[nH]c1C)NC#N` [Cimetidine, reference compound], the “inhibition of the formation of gastric lesions (gastric lesion score) relative to vehicle alone” value is, setting by setting: (160 μmol/kg) “failed to significantly inhibit the formation of gastric lesions; also recorded: did not significantly inhibit the formation of gastric lesions”; (320 μmol/kg) “failed to significantly inhibit the formation of gastric lesions; also recorded: did not significantly inhibit the formation of gastric lesions”.

Take `CNC(=NCCSCc1ncn(C(=O)CC2(SN=O)C3CC4CC(C3)CC2C4)c1C)NC#N` (stereo not shown) [Example 1, (2Z)-2-aza-3-(methylamino)-3-((2-((5-methyl-1-(2-(2-(nitrosothio)adamantan-2-yl)acetyl)imidazol-4-yl)methylthio)ethyl)amino)prop-2-enenitrile]: the “inhibition of the formation of gastric lesions (gastric lesion score) relative to vehicle alone” value is “significantly inhibited the formation of gastric lesions” (160 μmol/kg) and “significantly inhibited the formation of gastric lesions” (320 μmol/kg).
